One may read the melting point as the temperature of the solid-liquid transition.

The values that follow come from a melting point compilation (Tetko et al.).

`Nc1noc2ccccc12` displayed a melting point of 110 to 112 °C.

The compound `O=C(O)c1c(F)c(Cl)c(F)c(Cl)c1F` displayed a melting point of 142 to 143 °C.

`O=C1C=C(NCc2ccc(Cl)cc2)C(=O)c2ccccc21` gave a melting point of 230 °C.

Compound `O=C(c1ccccc1)C1(O)CCCCC1` had a melting point of 48 °C.

For the compound `CC(C)CC=NO`, the melting point is 48.5 °C.

Regarding `C[C@]12CCC(=O)CC1CCC1=C2CC[C@]2(C)C(=O)CC[C@@H]12` (some centres not stated), the melting point came to 148 °C.

For `O=C1c2ccccc2C(=O)C1C(=O)C(c1ccccc1)c1ccccc1`, the melting point is 146 °C.

`c1ccc(P(c2ccccc2)P(c2ccccc2)c2ccccc2)cc1`: the melting point was 120 to 122 °C.

In turn, `CNC1(c2ccccc2Cl)CCCCC1=O` (configuration not stated) registered a melting point of 92.5 °C.

In the case of `O=C1OC(c2ccccc2)=NC1=Cc1ccc([N+](=O)[O-])cc1`, the melting point lay in the range of 214 to 215 °C.

Compound `CN1CC(Br)C(=O)NC1=O` (configuration not stated) yielded a melting point of 153 to 155 °C.

Compound `CCOC(=O)c1sc2sc(C#N)c(C)c2c1C` had a melting point of 155 to 157 °C.

In turn, `O=C1CC(C(F)(F)F)=NN1c1ccccc1` showed a melting point of 193 °C.

`O=C(O)C1CCCO1` (configuration not stated): the melting point was found to be 21 °C.

For `CC(=O)Oc1cccc(N=Nc2cccc(OC(C)=O)c2)c1`, the melting point came to 144 °C.

`Cc1nc(O)cc(O)n1`: the melting point amounted to 360 °C.

As to `O=C1C=CC2=CC(=O)C=CC2=C1`, the melting point came out at 132 °C.

`COc1ccccc1-c1nnc2n1NC(c1ccco1)S2` (configuration not stated) registered a melting point of 226 °C.

As for `CCOC(=O)c1nn(-c2ccc(C)cc2)c(C)c1C(=O)C1=NOC2C(=O)N(c3ccc(C(=O)O)cc3)C(=O)C12` (configuration not stated), the melting point is 281 °C.

Compound `CC(C)=C1OC(=O)N(c2cc(OC3CCCC3)c(Cl)cc2F)C1=O` displayed a melting point of 104 °C.

As for `CC(=O)Nc1ccc(Cl)c(N)c1`, the melting point was in the range of 168 to 172 °C.

Regarding `CNCc1ccc(N2CCN(C(=O)OC(C)(C)C)CC2)cc1`, the melting point was in the range of 60 to 62 °C.

Consider `CSc1nnc(C(C)(C)C)c(=O)n1N=CC(C)C`, for which the melting point came to 159 °C.

`S=c1cc[nH]c(=S)[nH]1` gave a melting point of 279 to 281 °C.

Turning to `O=c1ccoc2ccc(Br)cc12`, the melting point stood at 141 °C.

In the case of `NC(=O)C=CC(=O)O`, the melting point amounted to 172 °C.

Regarding `C1=CCC(c2ccccc2)(c2ccccc2)C=C1`, the melting point turned out to be 57 °C.

Compound `NS(=O)(=O)c1ccccc1OC(F)(F)F` had a melting point of 188 °C.

The compound `c1cc(N2CCNCC2)ccn1` showed a melting point of 142 to 144 °C.

For `Cc1ccc2cc(CBr)ccc2n1`, the melting point lay within 93 to 94 °C.

In turn, `COC(=O)c1ccc(Br)c(C)c1` returned a melting point of 42 °C.

Regarding `CCCCC1C(=O)N(c2ccccc2)N(c2ccc(O)cc2)C1=O` (configuration not stated), the melting point turned out to be 124 °C.

The compound `O=C(O)c1ccccc1-c1cccs1` came in with a melting point of 92 to 95 °C.

Consider `CCOC(=O)c1cc2c(=O)oc3ccccc3c2nc1N`, for which the melting point turned out to be 192 °C.

Compound `O=C1c2cccc3cccc(c23)C(=O)N1O` displayed a melting point of 245 °C.

Take `C[P+]([O-])(CCCCN1C(=O)c2ccccc2C1=O)OCCCCN1C(=O)c2ccccc2C1=O` (configuration not stated): the melting point came to 114 °C.

Compound `c1cnc2c(c1)ccc1ncccc12` had a melting point of 79 °C.

Compound `N#Cc1cc2ccccc2cc1C#N` yielded a melting point of 253 to 257 °C.

On to `O=C(O)CCCCCCCCCCBr`, for which the melting point came to 57 °C.

The compound `ON=CC1=C(C#Cc2ccccc2)CCC1` registered a melting point of 105 to 106 °C.

`CCc1c(C)nc(NC(=O)NS(=O)(=O)c2cccs2)nc1Cl` gave a melting point of 126 to 127 °C.

`Cc1oc(-c2ccccc2)nc1CCl`: the melting point was in the range of 83 to 84 °C.

In turn, `O=S(=O)(Cl)c1occc1C1OCCO1` had a melting point of 34 to 39 °C.

Regarding `c1csc(NC2=NCCN2)n1`, the melting point fell in the range of 240 to 242 °C.

On to `Clc1ccc(Br)c(Cl)n1`, for which the melting point was found to be 70 °C.

In the case of `CN(C)C1CSSC1`, the melting point turned out to be 177 °C.

Turning to `O=C(O)c1cc2ccccc2[nH]1`, the melting point was determined as 206 °C.

Compound `O=C(Cl)c1cccc(C(Cl)Cl)c1` displayed a melting point of 57 to 63 °C.

Compound `CC(=O)C=CC=Cc1ccccc1` showed a melting point of 68 °C.

`O=C(O)c1ccccc1SSc1ccccc1C(=O)O` had a melting point of 288 °C.

The compound `O=C(O)c1cccnc1Oc1ccc2c(c1)OCO2` returned a melting point of 181 to 183 °C.

`Cc1cc(-n2c(=O)[nH]c(=O)n(C)c2=O)ccc1Oc1ccc(SC(F)(F)F)cc1` displayed a melting point of 194 °C.

In the case of `CNCC(O)c1cccc(O)c1` (configuration not stated), the melting point is 170 °C.

Compound `CC(=O)NC1C(Oc2ccc3c(C)cc(=O)oc3c2)OC(CO)C(O)C1O` (configuration not stated) came in with a melting point of 208 to 210 °C.

Take `C/C(=N\c1ccccc1)c1c(O)c2ccccc2n(-c2ccccc2)c1=O`: the melting point fell in the range of 184 to 185 °C.

`C/C(CCc1oc2ccc(Cl)cc2c1-c1ccc(C)o1)=N/O` showed a melting point of 114 to 115 °C.

With `CCCCCCCCCC(=O)CCCCCCCCC`, the melting point was determined as 65.5 °C.

The compound `C[N+](C)(C)CC(=O)[O-]` yielded a melting point of 301 °C.

The compound `CCCCCCCCCCCCCC(=O)OC(=O)CCCCCCCCCCCCC` came in with a melting point of 53.4 °C.

Regarding `O=C1OC(Cl)c2ccccc21` (configuration not stated), the melting point worked out at 60 °C.

Compound `CC(C)(C)OC(=O)N1CCN(Cc2ccc(C=O)cc2)CC1` came in with a melting point of 57 to 59 °C.

The compound `CCOC(=O)C=Cc1ccc(C=CC(=O)OCC)c(N)c1` yielded a melting point of 178 °C.

Turning to `N#Cc1ccc(CCl)cc1`, the melting point worked out at 79 °C.

In the case of `CS(=O)(=O)c1nn(-c2ccccc2)c(N)c1C#N`, the melting point turned out to be 190 °C.

As for `C=C1C(=O)C23C4CC5C(C)(C)CCC(=O)C5(C(=O)O4)C2C(=O)CC1C3O` (configuration not stated), the melting point was 250 °C.

Compound `O=C(Cl)OCc1ccc([N+](=O)[O-])cc1` gave a melting point of 33 °C.

As to `Cc1ccccc1S`, the melting point amounted to 15 °C.

The compound `C1=CCCCCCCCCCC1` displayed a melting point of -9 °C.

As to `O=C(O)[C@@H]1CCCC[C@H]1C(=O)O` (relative stereo), the melting point worked out at 220 °C.

In turn, `CCCCC#Cc1cncc(C(=O)NN)c1` displayed a melting point of 158 to 161 °C.

In the case of `Cn1ccc(-c2cccc(C(=O)O)c2)n1`, the melting point was 167 to 169 °C.

In turn, `CCCCc1c(C)nc(N)nc1O` registered a melting point of 273 to 275 °C.

The compound `CCNC(=O)C1CC(C)CCC1C(C)C` (configuration not stated) had a melting point of 88 °C.

As to `Cc1ccc(F)cc1NC(N)=S`, the melting point lay within 120 to 123 °C.

Consider `CC(=O)c1c(C)cn(C)c1C`, for which the melting point fell in the range of 81 to 82 °C.

`CCCCCCCCCCCCCCCCOP(=O)(O)OCCCCCCCCCCCCCCCC` yielded a melting point of 74.5 °C.

Consider `CC1(C)OC2OC(CO)C3OC(C)(C)OC3C2O1` (configuration not stated), for which the melting point was in the range of 120 to 122 °C.

On to `COC1=CC(=O)C(C#N)C(c2ccccc2)C1` (configuration not stated), for which the melting point is 167 °C.

As for `CC(=O)O[C@H]1CCCC2=CC(=O)CC[C@@]21C`, the melting point was in the range of 89 to 90 °C.

With `CCC(Br)(CC)C(=O)NC(=O)NC(C)=O`, the melting point came out at 109 °C.

In turn, `CC(=O)Oc1cc(OC(C)=O)cc(C(=O)O)c1` came in with a melting point of 159 °C.

Compound `CC12CCCC1C1CCC3CC(OCc4ccccc4)CCC3(C)C1CC2` (configuration not stated) had a melting point of 148 °C.

`CC(=O)NCCNc1cc(=O)oc2ccccc12`: the melting point was found to be 262 °C.

As for `O=S1(=O)OC(Cl)c2ccccc21` (configuration not stated), the melting point is 110 to 116 °C.

As for `CCCCCCCC=CC(=O)O`, the melting point was determined as 12 °C.

`O=[N+]([O-])c1cc(N=C=S)ccc1Cl` gave a melting point of 66 °C.

With `CN1CCOc2cc(C=O)ccc21`, the melting point fell in the range of 70 to 71 °C.

The compound `Cc1cc2ccccc2cc1COC(=O)C(F)(F)F` returned a melting point of 92 °C.

`Cn1c(=O)c(C2=NNC(=O)C2=CNc2ccccn2)c(O)c2ccccc21` displayed a melting point of 235 °C.

As to `O=S1(=O)OC(c2ccc(O)cc2)(c2ccc(O)cc2)c2ccccc21`, the melting point was 300 °C.

On to `CCN(CCO)c1ccccc1`, for which the melting point was found to be 37 °C.

Take `COC(=O)[C@H](Cc1ccccc1)N=C=S`: the melting point is 34 to 36 °C.

As for `O=C(O)C(c1ccccc1)(c1ccccc1)c1ccccc1`, the melting point was in the range of 268 to 269 °C.

`Clc1cc(Cl)c2c(c1Cl)Oc1c(Cl)cc(Cl)c(Cl)c1O2` returned a melting point of 238 °C.

As to `CC(C)NCC(O)c1ccc(NS(C)(=O)=O)cc1` (configuration not stated), the melting point was found to be 207 °C.

Turning to `O[C@@H](c1ccccc1)[C@@H](O)c1ccccc1`, the melting point came out at 149 °C.

`Nc1ccccc1-n1cccc1` came in with a melting point of 94 to 98 °C.

The compound `COc1ccc(Cl)nn1` returned a melting point of 91 °C.

Consider `CNc1cnn(-c2cccc(C(F)(F)F)c2)c(=O)c1Cl`, for which the melting point amounted to 184 °C.

`CCC1NC(=O)c2cc(S(N)(=O)=O)c(Cl)cc2N1` (configuration not stated) showed a melting point of 251 °C.

In turn, `CC(=O)NC(N)=S` showed a melting point of 165 °C.

`O=C(NC(=O)c1c(F)cccc1F)Nc1ccc(CON=C(c2ccc(Cl)cc2)C2CC2)cc1` showed a melting point of 144 °C.

On to `CCOCCc1ccc(OCCNc2ncnc(CC)c2Cl)c(C)c1C`, for which the melting point was 70 °C.

`NCc1cc(-c2ccco2)on1` returned a melting point of 46 to 49 °C.

`O=C1NC(=S)NC(=O)C1=Cc1ccc(-c2ccc(Cl)cc2)o1` had a melting point of 280 °C.

As for `CC12CCC3C4CCC(=O)C(O)=C4CCC3C1CCC2O` (configuration not stated), the melting point was 189 °C.

`N=C(N)N[C@@H](Cc1ccccc1)C(=O)O` registered a melting point of 250 to 253 °C.

With `O=C(c1ccc2c3c(cccc13)CC2)C(O)c1ccccc1` (configuration not stated), the melting point came to 138 °C.

As for `O=C(C(Cl)Cl)N(CCO)Cc1ccc(Oc2ccc([N+](=O)[O-])cc2)cc1`, the melting point was 136 °C.

`N#CCCn1cnc2c(N)ncnc21` returned a melting point of 255 °C.

The compound `Cc1ccc(I)cc1N` gave a melting point of 47.5 °C.

Take `C=C(C)C(=C)C`: the melting point is -76 °C.
